Laboratory results published in PubChem BioAssay AID977630 (Broad Institute, 2014).
Inconclusive results are not listed. Calls of active or inactive are those of the source.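 How the source made its calls: active means Normal-ribosome green reporter loss at least double humanized-ribosome red reporter loss, with overall culture growth inhibition under a set limit; inconclusive means no clear call, values can overlap the other calls; inactive means the rest.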

Columns and labels:
[1] = tested on: E. coli humanized H38 RFP strain growth, mixed culture, 24 h; assay: E. coli growth inhibition, wild-type GFP versus H38 humanized RFP strain – H38 mutant RFP vs wild-type GFP, cherry-pick, dose response (AID 977630)
[2] = tested on: E. coli wild-type GFP growth, mixed culture, 24 h; assay: as above
[3] = E. coli mixed culture total OD600 growth, 24 h

SMILES: CCn1cc(Br)c(C(=O)Nc2ccc(C(=O)OC(C)C)cc2)n1
- AC50 [1]: 52 µM
- AC50 [2]: > 100 µM (inactive)
- AC50 [2, 3]: 47.3 µM

SMILES: Nc1nc(=S)ss1
- AC50 [1]: < 0.6 µM
- AC50 [2]: > 100 µM (inactive)
- AC50 [2, 3]: > 100 µM

SMILES: CCOC(=O)c1csc(NC(=O)CC2CCCC2)n1
- AC50 [1]: 51.7 µM
- AC50 [2]: > 100 µM (inactive)

SMILES: CC(C)(C)S(=O)(=O)Cc1nc(-c2ccc(Cl)c(Cl)c2)cs1
- AC50 [1]: > 100 µM
- AC50 [2, 3]: > 100 µM

SMILES: COc1ccc(-c2nn(-c3ccccc3C)cc2CNCc2cccnc2)cc1F
- AC50 [1]: > 100 µM
- AC50 [2, 3]: > 100 µM

SMILES: O=C(CCCSc1nc2ccccc2s1)NCc1ccc2c(c1)OCO2
- AC50 [1]: > 100 µM
- AC50 [2]: > 100 µM (inactive)
- AC50 [2, 3]: 43.8 µM

SMILES: Nc1nc2ccccc2n1CCOc1ccc(F)cc1
- AC50 [1]: < 0.6 µM
- AC50 [2]: > 100 µM (inactive)

SMILES: Nc1ncncc1-c1ccc2ccccc2c1
- AC50 [1]: > 100 µM
- AC50 [2]: > 100 µM (inactive)

SMILES: COc1cc(NC(=O)c2ccc(Cl)cc2)c(OC)cc1NC(=O)CN1CCCCC1
- AC50 [1]: > 100 µM
- AC50 [2]: > 100 µM (inactive)
- AC50 [2, 3]: > 100 µM

SMILES: O=C(Nc1ccccc1N1CCOCC1)C1CCCCN1S(=O)(=O)c1ccccc1 (stereo not drawn)
- AC50 [1]: 49.8 µM
- AC50 [2, 3]: > 100 µM

SMILES: CC(C)C[C@H]1COc2cc(Br)ccc2S(=O)(=O)N1
- AC50 [1]: 47 µM
- AC50 [2]: > 100 µM (inactive)

SMILES: CCc1cc2ccc(OC)cc2nc1SCC(=O)N1CCN(C(=O)c2ccco2)CC1
- AC50 [1]: > 100 µM
- AC50 [2]: > 100 µM (inactive)

SMILES: O=C1c2ccccc2NC(c2ccc(-c3cccc([N+](=O)[O-])c3)o2)N1O (stereo not drawn)
- AC50 [1]: 7.43 µM
- AC50 [2]: > 100 µM (inactive)

SMILES: O=C(NCc1ccccc1)c1ccc(-c2cn[nH]c2)c2ccoc12
- AC50 [1]: > 100 µM
- AC50 [2]: > 100 µM (inactive)

SMILES: CC(C)(C)c1ccc(S(=O)(=O)NCc2ccc(C(=O)NCc3ccccn3)cc2)cc1
- AC50 [1]: 49.9 µM
- AC50 [2]: > 100 µM (inactive)
- AC50 [2, 3]: > 100 µM

SMILES: O=C1NC(CCc2ccccc2)C(=O)N1Cc1cccc2ccccc12 (stereo not drawn)
- AC50 [1]: 50.1 µM
- AC50 [2]: > 100 µM (inactive)
- AC50 [2, 3]: 51.8 µM

SMILES: CS(=O)(=O)c1ccc(Cl)c(NC(=O)COC(=O)c2c(Cl)cccc2Cl)c1
- AC50 [1]: > 100 µM
- AC50 [2]: > 100 µM (inactive)
- AC50 [2, 3]: > 100 µM

SMILES: CN(C(=O)COc1ccccc1C(=O)NCCOc1ccccc1)c1ccccc1
- AC50 [1]: 44.2 µM
- AC50 [2]: > 100 µM (inactive)
